In US12054502B2, “Multifunctional immunity-targeted micromolecule anti-cancer medicine Bestazomib (Bestazomib) and preparation method and application thereof” (SHANDONG HUBBLE KISEN BIOLOGICAL TECHNOLOGY CO., LTD., priority 2018, dated 2024):
Counter-ions that a name gives are not always drawn. Like-named read-outs stand apart in the source and are kept apart here.

Legend:
[1] = tested on: Human leukemia K562 cell line; assay: MTT cell proliferation inhibition, K562; assay type: cell-based; conditions: average of three tests, read-out: IC50 tumor cell proliferation, K562
From the text: (§1) The in vitro cell proliferation inhibitory activity test of the target compound adopts the MTT method. Human leukemia K562 cell line, human myeloma U266 cell line, human lung cancer A549 cell, human prostate cancer PC-3 cell line, human lymphoma U937 cell line, human liver cancer PLC/PRF/5 cell line, and human embryonic kidney cell HEK293, human normal hepatocyte HL7702 were taken, and all adopted routine culture. Logarithmic growth phase cells were used in the experiment. The cell suspensions of the above cells were taken and counted under an inverted microscope, and the medium was added to adjust the number of cells to 1×10^5/mL. A 96-well cell culture plate was taken for cell inoculation and drug experiment. The peripheral holes are not used (filled with sterile PBS). Blank control group, negative control group, positive control group and a drug experiment group were set up. The blank control group only added 150 L/Well of cell culture solution, the negative control group was inoculated with 100 µL/well of cell suspension and 50 µL/well of cell culture medium was added, the positive control group was inoculated with 100 µL/well of cell suspension and 50 µL/well of positive control drug solution was added, and the drug experiment group was inoculated with 100 L/Well of cell suspension and 50 µL/well of the test compound solution was added, the positive control group and the drug experimental group are respectively set up with 5 different final drug concentrations: […], 3 parallel re-wells for each drug concentration. After the drug was added, the 96-well cell culture plate was incubated at 37° C., 5% CO2 and saturated humidity for 48 hours, and 10 μL of 0.5% MTT staining solution was added to each well. […] Measure the OD value of each well with a microplate reader at a wavelength of 570 nm, and the cell growth inhibition rate is calculated according to the following formula: […]

[2] = tested on: human myeloma U266 cell line; assay: MTT cell proliferation inhibition, U266; assay type: cell-based; conditions: average of three tests, read-out: IC50 tumor cell proliferation, U266
From the text: as §1

[3] = tested on: human lung cancer A549 cell; assay: MTT cell proliferation inhibition, A549; assay type: cell-based; conditions: average of three tests, read-out: IC50 tumor cell proliferation, A549
From the text: as §1

[4] = tested on: human prostate cancer PC-3 cell line; assay: MTT cell proliferation inhibition, PC-3; assay type: cell-based; conditions: average of three tests, read-out: IC50 tumor cell proliferation, PC-3
From the text: as §1

[5] = tested on: human lymphoma U937 cell line; assay: MTT cell proliferation inhibition, U937; assay type: cell-based; conditions: average of three tests, read-out: IC50 tumor cell proliferation, U937
From the text: as §1

[6] = tested on: human liver cancer PLC/PRF/5 cell line; assay: MTT cell proliferation inhibition, PLC/PRF/5; assay type: cell-based; conditions: average of three tests, read-out: IC50 tumor cell proliferation, PLC/PRF/5
From the text: as §1

[7] = biological target: Aminopeptidase N (APN) (Homo sapiens (Human), UniProt P15144); assay: Inhibition of aminopeptidase N in vitro (L-leucyl p-nitroaniline substrate, absorbance 405 nm); assay type: biochemical; conditions: average of three tests
From the text: Aminopeptidase N interacts with its commercial substrate L-leucyl p-nitroaniline (purchased from Sigma) to produce p-nitroaniline that is absorbed at 405 nm, and the concentration of p-nitroaniline is positively correlated to the enzyme activity. Measure the absorbance at 405 nm, and calculate the inhibition rate based on the absorbance of the inhibitor group and the control group, and calculate the IC50 value.

[8] = biological target: 20S Proteasome (Homo sapiens (Human), UniProt P28074); assay: 20S proteasome detection kit, in vitro proteasome activity test (7-AMC fluorescence); assay type: biochemical; conditions: average of three tests
From the text: The proteasome interacts with its substrate to produce the fluorescent substance 7-amino-4-methylcoumarin (7-AMC), and the concentration of 7-AMC is positively correlated with the activity of the proteasome. Measure the fluorescence intensity at 380/460 nm to calculate the inhibition rate based on the absorbance of the inhibitor group and the control group, and calculate the IC50 value.

[9] = tested on: human embryonic kidney cell HEK293; assay: MTT proliferation inhibition on normal human cells, HEK293; assay type: cell-based; conditions: 48 hours, average of three tests
From the text: (§2) The in vitro cell proliferation inhibitory activity test of the target compound adopts the MTT method. Human leukemia K562 cell line, human myeloma U266 cell line, human lung cancer A549 cell, human prostate cancer PC-3 cell line, human lymphoma U937 cell line, human liver cancer PLC/PRF/5 cell line, and human embryonic kidney cell HEK293, human normal hepatocyte HL7702 were taken, and all adopted routine culture. Logarithmic growth phase cells were used in the experiment. The cell suspensions of the above cells were taken and counted under an inverted microscope, and the medium was added to adjust the number of cells to 1×10^5/mL. A 96-well cell culture plate was taken for cell inoculation and drug experiment. The peripheral holes are not used (filled with sterile PBS). Blank control group, negative control group, positive control group and a drug experiment group were set up. […] Measure the OD value of each well with a microplate reader at a wavelength of 570 nm, and the cell growth inhibition rate is calculated according to the following formula: […]

[10] = tested on: human normal hepatocyte HL7702; assay: MTT proliferation inhibition on normal human cells, HL7702; assay type: cell-based; conditions: L02, 48 hours, average of three tests
From the text: as §2

[11] = tested on: macrophages; assay: Function test of clearance rate of charcoal particles (macrophage phagocytosis) in mice; assay type: in vivo, Kunming mice; conditions: for carbon clearance index (K) / phagocytosis index(α): mice, administered 2 weeks, mean ± standard deviation
Description: The mononuclear macrophage system is a very important defense system, which has a powerful ability to swallow and clear foreign particles. When a certain concentration of charcoal particles enters the body through the tail vein of the mice, they are carried to the liver, spleen, etc. by the flow of blood, and the macrophages of these organs can remove these charcoal particles. Within a certain concentration range, the rate of macrophages' elimination of charcoal particles is exponentially related to their dose, that is, the rate of phagocytosis is directly proportional to the concentration of charcoal particles in the blood. Therefore, taking the logarithm of the concentration of charcoal particles in the blood of mice as the ordinate and the time as the abscissa, the slope K represents the phagocytic rate of macrophages, but this is an uncorrected phagocytic index. In fact, its phagocytic activity is also related to the weight of the liver and spleen of mice. Different weights result in different K values. Therefore, it is generally expressed by the corrected phagocytic index α, which reflects the phagocytic activity per unit tissue weight. The calculation formulas of K and a are as follows: K=(log A1−log A2)/(t2−t1) α=(k^1/3×body weight)/(liver weight+spleen weight)
Materials: Kunming mice (female, 4-5 weeks old), Indian ink, normal saline, Na2CO3 solution (0.1% g/v), UV ultraviolet visible photometer.
Kunming mice were randomly divided into groups and administered for 2 weeks. One hour after the last administration, each mouse was injected intravenously with 0.1 mL/10 g of Indian ink 5 times diluted with normal saline, and started timing immediately after injection, 20 μL of blood samples were accurately collected from the orbital venous plexus and added into 2 mL of 0.1% Na2CO3 solution at 2 min (t1) and 10 min (t2) time points, respectively. After mixing evenly, use 0.1% Na2CO3 solution as the control group, each administration group was the experimental group, the absorbance at two time points of t1 and t2 were measured by ultraviolet spectrophotometer at 600 nm, and counted as A1 and A2. The clearance index is calculated by the calculation formula of the above K value. In addition, after the completion of blood collection, the mice were sacrificed by neck removal, and the liver and spleen were taken out and weighed. Calculate the phagocytic index α.

[12] = tested on: liver cancer H22; assay: Inhibition of liver cancer H22 lung metastasis in mice; assay type: in vivo, Kunming mice; conditions: intragastric administration, 2.69-4.48 mg/kg, two cycles; FIG. 1-4
Description: Take well-grown H22 mice with liver cancer, extract ascites, add sterile PBS solution to dilute to a concentration of 2.5×10^7/mL, and inoculate Kunming mice through tail vein with 200 μL each. The Kunming mice with overweight or underweight were excluded, randomly grouped, and the drug was administrated according to the dosing schedule.
The Kunming mice inoculated with H22 tumors were weighed and randomly divided into the following 6 groups, with 7 mice in each group. […] The mice were sacrificed 13 days after the inoculation. The calculation formula for the inhibition rate of lung metastasis of liver cancer was as follows: […]

[13] = tested on: H22 liver ascites model; assay: Survival test of H22 liver ascites model; assay type: in vivo, Kunming mice; conditions: equal molar amount with Ixazomib, FIG. 5-6
Description: Take well-grown H22 mice with liver cancer, extract ascites, add sterile PBS solution to dilute to a concentration of 2.5×10^7/mL, and inoculate the abdominal cavity of Kunming mice with 200 μL each. 5 days later, the animals were randomly grouped to administrate the drug. The day of inoculation was the first day. The body weight of the animals was recorded at the time of administration. The mice were randomly weighed and divided into the following 6 groups, with 10 mice in each group. […] The mice were administered according to the predetermined dosage, weighed and recorded respectively.
(§3) Use Origin7.5 software's one-way analysis of variance (One-Way ANOVA) function to calculate the overall difference; use t-test to compare each group with the blank group, and the life extension rate of each drug group was calculated by the following formula: […]

[14] = tested on: B16F10 melanoma cells; assay: Subcutaneous tumor survival test with B16F10 melanoma cells; assay type: in vivo, C57 mice
Description: The B16F10 melanoma cells in the logarithmic growth phase were taken, diluted with sterile PBS solution to a concentration of 1.5×10^7 cells/mL, and inoculated them subcutaneously in C57 mice with 150 μL each. 5 days later, the animals were randomly assigned to administer the drug. The day of inoculation was the first day. The body weight of the animals was recorded at the time of administration. The mice were randomly weighed and divided into the following 5 groups. […] The mice were administered according to the predetermined dosage, weighed and recorded respectively. Continuous observation until the death of the mouse was the end of observation, and the time of death of each mouse was recorded. The time of death of the mice in each group was counted.
as §3

[15] = Homo sapiens, PLC-PRF-5, 48 hours

Chain of Aminopeptidase N (APN) (P15144 whole entry, species assumed): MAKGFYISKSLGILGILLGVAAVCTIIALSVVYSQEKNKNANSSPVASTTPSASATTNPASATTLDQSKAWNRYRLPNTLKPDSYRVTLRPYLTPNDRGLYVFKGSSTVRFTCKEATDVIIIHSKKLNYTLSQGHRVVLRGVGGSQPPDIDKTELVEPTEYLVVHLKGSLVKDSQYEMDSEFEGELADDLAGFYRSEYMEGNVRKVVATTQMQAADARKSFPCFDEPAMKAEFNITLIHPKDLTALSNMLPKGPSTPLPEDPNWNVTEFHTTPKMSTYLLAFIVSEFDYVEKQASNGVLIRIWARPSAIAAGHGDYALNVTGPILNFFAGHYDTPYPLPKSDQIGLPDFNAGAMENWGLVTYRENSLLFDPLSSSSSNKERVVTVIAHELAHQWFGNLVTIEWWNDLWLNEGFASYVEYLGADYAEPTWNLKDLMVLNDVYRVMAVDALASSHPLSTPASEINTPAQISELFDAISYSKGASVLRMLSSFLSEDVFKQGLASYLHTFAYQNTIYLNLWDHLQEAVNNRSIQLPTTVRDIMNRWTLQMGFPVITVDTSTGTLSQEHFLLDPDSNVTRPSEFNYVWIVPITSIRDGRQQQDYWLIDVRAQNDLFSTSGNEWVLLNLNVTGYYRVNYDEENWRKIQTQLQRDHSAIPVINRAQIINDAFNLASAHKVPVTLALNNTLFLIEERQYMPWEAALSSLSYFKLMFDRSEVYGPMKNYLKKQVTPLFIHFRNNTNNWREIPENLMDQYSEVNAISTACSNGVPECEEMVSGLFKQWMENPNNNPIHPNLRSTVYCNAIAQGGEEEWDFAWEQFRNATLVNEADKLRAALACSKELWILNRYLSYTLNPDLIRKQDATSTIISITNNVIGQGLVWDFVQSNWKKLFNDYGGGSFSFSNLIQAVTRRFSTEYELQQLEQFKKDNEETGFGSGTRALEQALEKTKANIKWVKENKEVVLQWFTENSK

Row | IC50 [7] | Compound | IC50 [8] | IC50 ([1]; Homo sapiens, K562, 48 hours) | IC50 ([2]; Homo sapiens, U-266, 48 hours) | IC50 ([3]; Homo sapiens, A549, 48 hours) | IC50 ([4]; Homo sapiens, PC-3, 48 hours) | IC50 ([5]; Homo sapiens, U-937, 48 hours) | IC50 [6, 15] | IC50 [9] | IC50 [10] | also measured
1 | – | CC(C)C[C@H](NC(=O)[C@@H](O)[C@H](N)Cc1ccccc1)C(=O)O [Bestatin, reference compound] | – | – | – | – | – | – | – | – | – | IC50 ([1]; 48 hours): > 200 µM; IC50 ([2]; 48 hours): > 200 µM; IC50 ([3]; 48 hours): > 200 µM; IC50 ([4]; 48 hours): > 200 µM; IC50 ([5]; 48 hours): > 200 µM; IC50 ([6]; 48 hours): > 200 µM
2 | 3.87 µM | CC(C)C[C@H](NC(=O)[C@@H](O)[C@H](N)Cc1ccccc1)B(O)O [Bestazomib, (R)-1-((2S,3R)-3-amino-2-hydroxy-4-phenylbutyramide)-3-methylbu tylboronic acid] | 10.2 µM | 37.1 ± 2.28 µM | 36.6 ± 2.07 µM | 98.4 ± 7.51 µM | 65.7 ± 5.83 µM | 15.5 ± 1.41 µM | 79.6 ± 6.32 µM | – | – | –
3 | 18.2 µM | CC(C)C[C@H](NC(=O)CNC(=O)c1cc(Cl)ccc1Cl)B(O)O [Ixazomib, reference compound] | – | – | – | – | – | – | – | 17.1 ± 2.27 µM | 4.04 ± 0.63 µM | –

Row | Compound | IC50 [7] | IC50 [8] | IC50 ([1]; Homo sapiens, K562, 48 hours) | IC50 ([2]; Homo sapiens, U-266, 48 hours) | IC50 ([3]; Homo sapiens, A549, 48 hours) | IC50 ([4]; Homo sapiens, PC-3, 48 hours) | IC50 ([5]; Homo sapiens, U-937, 48 hours) | IC50 [6, 15] | IC50 [9] | IC50 [10] | also measured
4 | CC(C)C[C@H](NC(=O)[C@@H](O)[C@H](N)Cc1ccccc1)B1OC(=O)C(CC(=O)O)(CC(=O)O)O1 [Bestazomib Citrate, 2,2′-(2-((R)-1-((2S,3R)-3-amino-2-hydroxy-4-phenylbutanoylamino)-3-methylbutyl)-5-oxo-1,3,2-dioxaborolan-4,4-diyl) diacetic acid] | 2.14 µM | 8.56 µM | 12.3 ± 1.46 µM | 21.7 ± 1.87 µM | 63.6 ± 5.71 µM | 45.6 ± 3.16 µM | 6.42 ± 0.64 µM | 54.7 ± 4.12 µM | 446 ± 19.4 µM | 371 ± 70.9 µM | phagocytic ability of macrophages in mice ([11]; compared with positive control Ixazomib): significantly stronger than that of the positive control Ixazomib; carbon clearance index (K) ([11]; high-dose 4.48 mg/kg/4 d po.): 0.063 ± 0.0002; phagocytosis index(α) ([11]; high-dose 4.48 mg/kg/4 d po.): 21.628 ± 0.026; carbon clearance index (K) ([11]; low-dose 2.69 mg/kg/4 d po.): 0.066 ± 0.0077; phagocytosis index(α) ([11]; low-dose 2.69 mg/kg/4 d po.): 24.842 ± 0.969; carbon clearance index (K) ([11]; medium-dose 3.59 mg/kg/4 d po.): 0.076 ± 0.0016; phagocytosis index(α) ([11]; medium-dose 3.59 mg/kg/4 d po.): 21.620 ± 0.154; anti-tumor activity (H22 lung metastasis) [12]: strong anti-tumor activity; survival time of mice [13]: better than the prolonged time of the positive drug Ixazomib; survival time of B16F10 melanoma mice ([14]; 4, 6, 9 mg/kg/4d, FIG. 7): significantly prolong the survival time; survival time of mice compared with Ixazomib ([14]; medium-dose 6 mg/kg/4d and high-dose 9 mg/kg/4d vs Ixazomib 4 mg/kg/4d): better survival time of mice in the medium-dose and high-dose than the positive drug Ixazomib
